Entries after “also recorded” stand apart in the source; their conditions may differ.
Legend:
VEGF-A145 = molecular target: T1, VEGF-A145 (Homo sapiens, UniProt P15692); experiment: vWF binding to recombinant VEGF-A isoforms (ELISA); details: plate coated with 50 nM vWF domains, 1 μg/mL VEGF-A, vs BSA
T1 construct: All GFs and chemokines were purchased in their mature forms; purchased R & D Systems
T1 sequence (P15692 27-171 isoform P15692-6 limits assumed): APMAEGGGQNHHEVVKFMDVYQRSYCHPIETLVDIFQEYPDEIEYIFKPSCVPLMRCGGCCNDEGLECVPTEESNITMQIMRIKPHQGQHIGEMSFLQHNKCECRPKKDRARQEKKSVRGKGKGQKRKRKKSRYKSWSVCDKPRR
Experimental: (§1) ELISA was performed as previously reported1. In brief, ELISA plates (med binding: Greiner Bio-One) were coated with 50 nM BSA (GE Healthcare), pro-peptide containing recombinant vWF (Sino Biological), plasma-derived vWF (EMD Millipore), recombinant human vWF A1 domain (U-Protein Express), recombinant human vWF A2 domain (R & D systems), recombinant human vWF A3 domain (U-Protein Express), vWF A1 HBD peptide or scrambled/mutated HBD peptide (all peptides were synthesized by Genscript). After blocking with 2% BSA solution containing PBS-T, 1 μg/mL of recombinant human VEGF-A121 (PeproTech), recombinant human VEGF-A145 (R & D Systems), or recombinant human VEGF-A165 (PeproTech) was added. Bound VEGF-A was detected with 1 μg/mL of mouse anti-human VEGF-A antibody (clone: 26503, R & D systems). After 60 min of incubation, horseradish peroxidase (HRP) conjugated goat anti-mouse antibody (1:2000 dilution, Dako) was added and incubated for another 60 min. Color development and the absorbance measurement were done as described above.

VEGF-A165 [1] = molecular target: T2, VEGF-A165 (Homo sapiens, UniProt P15692); experiment: vWF binding to recombinant VEGF-A isoforms (ELISA); details: plate coated with 50 nM vWF domains, 1 μg/mL VEGF-A, vs BSA
T2 construct: All growth factors (GFs) and chemokines were purchased in their mature forms; purchased PeproTech; host or cells: Escherichia coli
T2 sequence (P15692 27-191 isoform P15692-4 limits assumed): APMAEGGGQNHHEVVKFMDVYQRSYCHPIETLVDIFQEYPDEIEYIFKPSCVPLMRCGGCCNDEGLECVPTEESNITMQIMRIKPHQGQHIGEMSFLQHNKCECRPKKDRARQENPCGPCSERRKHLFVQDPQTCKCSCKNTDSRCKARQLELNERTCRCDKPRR
Experimental: as §1

[2] = tested on: syndecan-1, syndecan-2, syndecan-3, syndecan-4; experiment: Recombinant syndecan binding to synthesized laminin HBD peptides (ELISA); set-up: species or system human; key to Interaction with Syndecans: ++ indicates high affinities; + indicates medium/low affinities; details: for binding to recombinant syndecans (syndecan 1-4): ELISA, peptide-coated plate, 1 μg/mL syndecan; for Interaction with Syndecans: summary Table 2
Experimental: ELISA tests were performed as described above. In brief, ELISA plates were coated with 1 μg/mL laminin peptide (sequences are described in Table 1, chemically synthesized by Genscript) in PBS for 2 hrs at 37° C. 1 μg/mL of BSA served as non-binding protein control. After blocking with 2% BSA PBS-T solution, 1 μg/mL of the recombinant human syndecan-1, syndecan-2, syndecan-3, syndecan-4 (all syndecan proteins are histidine-tagged; SinoBiological) were added. Bound GF was detected with anti-histidine tag antibody (1:1000 dilution, BioLegend).

[3] = Heparin binding to synthesized laminin peptides (ELISA); set-up: key to Interaction with Heparin: ++ indicates high affinities; + indicates medium/low affinities; details: for binding to heparin: ELISA, peptide-coated plate, 10 μg/mL biotinylated heparin; for Interaction with Heparin: summary Table 2
Experimental: (§2) ELISA tests were performed as described above. In brief, ELISA plates were coated with 1 μg/mL of laminin alpha 3 LG domain recombinant protein, laminin alpha 4 LG domain recombinant protein (R&D systems), laminin alpha 5 LG domain recombinant protein (LD BioPharma), or laminin peptide (sequences are described in Table 1, chemically synthesized by Genscript) in PBS for 2 hrs at 37° C. 1 μg/mL of BSA served as non-binding protein control. After blocking with 2% BSA PBS-0.05% Tween 20 (PBS-T) solution, 1 μg/mL of the recombinant human proteins (VEGF-A121, VEGF-A165, PlGF-1, PlGF-2, PDGF-BB or FGF-2) or 10 μg/mL of biotinylated heparin (Sigma-Aldrich) were added. Bound GF was detected with biotinylated antibodies for human VEGF, PlGF, PDGF-BB, or FGF-2 (R&D Systems). The antibodies were detected by streptavidin-HRP (R&D Systems).

GFs = experiment: GF binding to synthesized laminin peptides (ELISA), all tested GFs together; set-up: species or system human; key to Interaction with GFs: ++ indicates high affinities; + indicates medium/low affinities; details: for binding to the tested GFs: ELISA, statement for all tested GFs (VEGF-A, PlGF, PDGF-BB, FGF-2); for Interaction with GFs: summary Table 2
Experimental: as §2

human lung fibroblasts = experiment: Cell adhesion assay, fibroblasts on laminin peptide coated plates; assay type: cell-based; set-up: key to Cell adhesion Fibroblasts: ++ indicates high affinities; + indicates medium/low affinities; details: for fibroblast attachment: peptide-coated plates, 30 min at 37° C., without EDTA; for Cell adhesion Fibroblasts: summary Table 2
Experimental: (§3) 96-well plates (non-tissue culture treated, Greiner Bio-one) were pre-coated with 1 μg/mL with laminin HBD peptides in PBS for 2 hrs at 37° C., followed by blocking with 2% BSA PBS for 1 h at RT. Cell adhesion assays were performed using human lung fibroblasts (Lonza) in FGM-2 medium (Lonza) or human umbilical vein endothelial cells (HUVEC; Lonza) in EGM-2 medium (Lonza) supplemented with 1% fetal bovine serum (FBS) and […] VEGF-A165, with or without 5 mM EDTA (Sigma-Aldrich). Cells were plated at 3000 cells/well on laminin peptide pre-coated plates and incubated for 30 min at 37° C., 5% CO2. Then, the medium was removed, and wells were quickly washed three times with PBS. Cell numbers were quantified using a CyQUANT assay, according to the manufacturer's instructions (Invitrogen). All cell lines were checked for mycoplasma contamination and used in passages from 5 to 8.

VEGF-A165 [4] = molecular target: T2, VEGF-A165; experiment: GF binding to recombinant laminin LG domain protein and synthesized laminin HBD peptides (ELISA); details: plate coated with LG domain protein or peptide, 1 μg/mL GF, vs BSA-coated wells
Experimental: as §2

PDGF-BB = molecular target: T3, PDGF-BB (Homo sapiens, UniProt P01127); experiment: as above; details: plate coated with LG domain protein or peptide, 1 μg/mL GF, vs BSA-coated wells
T3 construct: All growth factors (GFs) and chemokines were purchased in their mature forms; purchased PeproTech; host or cells: Escherichia coli
T3 sequence (P01127 82-190 limits assumed): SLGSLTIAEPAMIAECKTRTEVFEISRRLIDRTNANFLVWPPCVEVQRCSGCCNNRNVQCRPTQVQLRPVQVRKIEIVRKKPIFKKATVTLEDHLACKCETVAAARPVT
Experimental: as §2

FGF-2 = FGF-2 (Homo sapiens, UniProt P09038); experiment: as above; set-up: All growth factors (GFs) and chemokines were purchased in their mature forms; purchased PeproTech; host or cells: Escherichia coli; details: plate coated with LG domain protein or peptide, 1 μg/mL GF, vs BSA-coated wells
FGF-2, sequence (P09038 143-288): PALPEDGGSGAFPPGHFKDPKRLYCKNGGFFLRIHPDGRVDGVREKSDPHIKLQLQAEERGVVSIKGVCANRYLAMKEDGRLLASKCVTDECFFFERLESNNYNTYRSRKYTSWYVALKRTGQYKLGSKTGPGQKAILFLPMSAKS
Experimental: as §2

PlGF-2 = molecular target: T4, PlGF-2 (Homo sapiens, UniProt P49763); experiment: as above; set-up: All growth factors (GFs) and chemokines were purchased in their mature forms; purchased PeproTech; host or cells: Escherichia coli; details: plate coated with LG domain protein or peptide, 1 μg/mL GF, vs BSA-coated wells
T4 sequence (P49763 19-170 isoform P49763-3 limits assumed): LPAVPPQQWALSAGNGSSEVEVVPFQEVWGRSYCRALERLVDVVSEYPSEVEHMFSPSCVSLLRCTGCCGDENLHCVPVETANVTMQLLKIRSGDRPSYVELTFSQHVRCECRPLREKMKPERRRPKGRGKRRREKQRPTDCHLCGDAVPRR
Experimental: as §2

HUVEC = experiment: Cell adhesion assay, HUVEC on laminin peptide coated plates; assay type: cell-based, human; set-up: key to Cell adhesion HUVECs: ++ indicates high affinities; + indicates medium/low affinities; details: for HUVEC attachment: peptide-coated plates, 30 min at 37° C., without EDTA; for Cell adhesion HUVECs: summary Table 2
Experimental: as §3

## A3: recombinant human vWF A3 domain (U-Protein Express)
VEGF-A145
  binding to VEGF-A145: no binding
VEGF-A165 [1]
  binding to VEGF-A165: no binding

## ARKASRRSRQPARH [α53312-3325, laminin α5 chain linker peptide, 14 aa]
[2]
  binding to recombinant syndecans (syndecan 1-4): weak binding
  Interaction with Syndecans: +
[3]
  binding to heparin: did not bind to heparin
GFs
  binding to the tested GFs: did not show particular binding to any tested GF

## KNSFMALYLSKGR [α33031-3043, laminin α3 chain LG4-derived peptide, 13 aa]
[2]
  binding to recombinant syndecans (syndecan 1-4): weak binding
  Interaction with Syndecans: +
[3]
  binding to heparin: non-heparin binding
Human lung fibroblasts
  fibroblast attachment: enhancement of fibroblast attachment
  Cell adhesion Fibroblasts: +
GFs
  Interaction with GFs: +
VEGF-A165 [4]
  binding to VEGF-A165: bound

## PLFLLHKKGKNLSKPKASQNKKGGKSK [α41408-1434, laminin α4 chain linker peptide, 27 aa]
[2]
  binding to recombinant syndecans (syndecan 1-4): significant binding
  Interaction with Syndecans: ++
[3]
  binding to heparin: bound to heparin
  Interaction with Heparin: ++
GFs
  Interaction with GFs: ++
PDGF-BB
  binding to PDGF-BB: bound
VEGF-A165 [4]
  binding to VEGF-A165: bound
FGF-2
  binding to FGF-2: bound
PlGF-2
  binding to PlGF-2: bound

## PPFLMLLKGSTRFNKTKTFR [α32932-2951, laminin α3 chain LG3-LG4 linker peptide, 20 aa]
HUVEC
  HUVEC attachment: promoted HUVEC attachment
  Cell adhesion HUVECs: +
[2]
  binding to recombinant syndecans (syndecan 1-4): weak binding
  Interaction with Syndecans: +
[3]
  binding to heparin: bound to heparin
  Interaction with Heparin: ++
Human lung fibroblasts
  fibroblast attachment: enhancement of fibroblast attachment
  Cell adhesion Fibroblasts: +
GFs
  Interaction with GFs: +
VEGF-A165 [4]
  binding to VEGF-A165: preferentially bound
FGF-2
  binding to FGF-2: preferentially bound

## RQRSRPGRWHKVSVRWEKNR [α53417-3436, laminin α5 chain LG4-derived peptide, 20 aa]
[2]
  binding to recombinant syndecans (syndecan 1-4): significant binding
  Interaction with Syndecans: ++
[3]
  binding to heparin: bound to heparin
  Interaction with Heparin: ++
Human lung fibroblasts
  fibroblast attachment: enhancement of fibroblast attachment
  Cell adhesion Fibroblasts: +
GFs
  Interaction with GFs: ++
PDGF-BB
  binding to PDGF-BB: bound
VEGF-A165 [4]
  binding to VEGF-A165: bound
FGF-2
  binding to FGF-2: bound
PlGF-2
  binding to PlGF-2: bound

## TLFLAHGRLVYMFNVGHKKLKIR [α41521-1543, laminin α4 chain LG4-derived peptide, 23 aa]
HUVEC
  HUVEC attachment: promoted HUVEC attachment
  Cell adhesion HUVECs: +
[2]
  binding to recombinant syndecans (syndecan 1-4): significant binding
  Interaction with Syndecans: ++
[3]
  binding to heparin: bound to heparin
  Interaction with Heparin: ++
Human lung fibroblasts
  fibroblast attachment: enhancement of fibroblast attachment
  Cell adhesion Fibroblasts: +
GFs
  Interaction with GFs: +
PDGF-BB
  binding to PDGF-BB: not statistically significant

## TLPDVGLELEVR [α53539-3550, laminin α5 chain LG5-derived peptide, 12 aa]
[2]
  binding to recombinant syndecans (syndecan 1-4): did not show binding
[3]
  binding to heparin: did not show binding to heparin; also recorded: non-heparin binding
GFs
  binding to the tested GFs: significantly bound to all tested GFs
  Interaction with GFs: +

## TPGLGPRGLQATARKASRRSRQPARHPACML [α53300-3330, laminin α5 chain linker peptide, 31 aa]
[2]
  binding to recombinant syndecans (syndecan 1-4): significant binding
  Interaction with Syndecans: ++
[3]
  binding to heparin: bound to heparin
  Interaction with Heparin: ++
GFs
  Interaction with GFs: +
VEGF-A165 [4]
  binding to VEGF-A165: preferentially bound
PlGF-2
  binding to PlGF-2: preferentially bound

## pro-peptide-containing recombinant vWF: immature, pro-peptide containing recombinant vWF (Sino Biological)
VEGF-A165 [1]
  binding to VEGF-A165: bind

B1: vWF A2: recombinant human vWF A2 domain (R & D systems) (protein)
chain: DVAFVLEGSDKIGEADFNRSKEFMEEVIQRMDVGQDSIHVTVLQYSYMVTVEYPFSEAQSKGDILQRVREIRYQGGNRTNTGLALRYLSDHSFLVSQGDREQAPNLVYMVTGNPASDEIKRLPGDIQVVPIGVGPNANVQELERIGWPNAPILIQDFETLPREAPDLV
VEGF-A145
  binding to VEGF-A145: no binding
VEGF-A165 [1]
  binding to VEGF-A165: no binding
